Reference: US20240174622A1, “COMPOUND AND RADIOACTIVE LABELING COMPOUND” (NIHON MEDI-PHYSICS CO., LTD., priority 2021, published 2024)

Key:
LNCaP tumor [1] = type: in vivo, mouse; conditions: for time after administration at which a significant difference in tumor volume from the saline-administered group was observed: 3.7 MBq, tail vein
Protocol: LNCaP tumor-implanted mice were administered saline solutions (100 μL) of [^90Y]Y-PSMA-DA1 (3.7 MBq) or [^90Y]Y-PSMA-DB (3.7 MBq) obtained by the method described above from the tail vein (n=7). As the control group, LNCaP tumor-implanted mice were administered 100 μL of saline from the tail vein (n=7). After administration of the ^90Y-labeling compound, the tumor volume and body weight were measured 3 times per week. The tumor volume was calculated based on the calculation formula “(tumor volume)=[(long side) x (short side) 2/2]”.

LNCaP tumor [2] = assay: Evaluation of suppressing tumor growth by 225Ac-labeling compound; type: in vivo, mouse; conditions: 20 kBq, tail vein
Protocol: [^225Ac]Ac-PSMA-DA1 (20 kBq) or [^225Ac]Ac-PSMA-DB (20 kBq) obtained by the above method was dissolved in 5% ethanol-containing acetate buffer (158 mM, pH 6.5, 100 μL), and the solution was administered to LNCaP tumor-transplanted mice from the tail vein (n=6 or 5). As the control group, 100 μL of 5% ethanol-containing acetate buffer (158 mM, pH 6.5) was administered to LNCaP tumor-transplanted mice from the tail vein (n=4).
After administration of the ^225Ac-labeling compound, the tumor volume and body weight were measured 2 times per week. The tumor volumes on the day when administration of ^225Ac-labeling compound was started were 75.3±26.0, 80.6±20.8, and 91.1±15.9 mm^3 for the groups administered [^225Ac]Ac-PSMA-DA1, [^225Ac]Ac-PSMA-DB, and 5% ethanol-containing acetate buffer, respectively.

[3] = compared with one hour after administration; EJNMMI Res 2012, J Nucl Med 2017; cited from earlier work

Question: With `O=C([O-])CN1CCN(C(CCC(=O)NCCCC[C@H](NC(=O)N[C@@H](CCC(=O)O)C(=O)O)C(=O)O)C(=O)[O-])CCN(CC(=O)[O-])CCN(C(CCC(=O)N[C@@H](CCCCNC(=O)CCCc2ccc(I)cc2)C(=O)O)C(=O)[O-])CC1.[90Y+3]` (stereo partly drawn) [[^90Y]Y-PSMA-DA1] as the compound, how does the “time after administration at which a significant difference in tumor volume from the saline-administered group was observed” value (LNCaP tumor [1]) read?
Answer: Its value is 9 days.

Question: And the “body weight of the mice” value (LNCaP tumor [1]; mouse, in vivo)?
Answer: Its value is “slightly reduced”.

Question: For `O=C([O-])CN1CCN(C(CCC(=O)NCCCC[C@H](NC(=O)N[C@@H](CCC(=O)O)C(=O)O)C(=O)O)C(=O)[O-])CCN(CC(=O)[O-])CCN(C(CCC(=O)Nc2ccccc2)C(=O)[O-])CC1.[90Y+3]` (stereo partly drawn) [[^90Y]Y-PSMA-DB, reference compound], which “time after administration at which a significant difference in tumor volume from the saline-administered group was observed” value (LNCaP tumor [1]) is on record?
Answer: Its value is 33 days.

Question: Which results are given for `O=C([O-])CN1CCN(C(CCC(=O)NCCCC[C@H](NC(=O)N[C@@H](CCC(=O)O)C(=O)O)C(=O)O)C(=O)[O-])CCN(CC(=O)[O-])CCN(C(CCC(=O)Nc2ccccc2)C(=O)[O-])CC1.[225Ac+3]` (stereo partly drawn) [[^225Ac]Ac-PSMA-DB, reference compound]?
Answer: body weight reduction (LNCaP tumor [2]): no sign of recovery; tumor growth compared with the control group (LNCaP tumor [2]): significantly suppressed

Question: With `O=C([O-])CN(CCN(CC(=O)[O-])Cc1cc(CCC(=O)NCCCCCC(=O)NCCCC[C@H](NC(=O)N[C@@H](CCC(=O)O)C(=O)O)C(=O)O)ccc1[O-])Cc1cc(CCC(=O)O)ccc1[O-].[68Ga+3].[OH3+]` [[^68Ga]Ga-PSMA-11] as the compound, how does the “kidney accumulation of known radiolabeled compound” value [3] read?
Answer: Its value is 139 % ID/g.
